PMC11123692, “Sugar-Based Surfactants: Effects of Structural Features on the Physicochemical Properties of Sugar Esters and Their Comparison to Commercial Octyl Glycosides” (Molecules, 2024)
Converted amounts (≈) assume the structure as drawn. “And” between values parts separate entries of the source, which are not always exact repeats. Identical values can stand only once. Like-named read-outs stand apart in the source and are kept apart here.

What was measured:
[1] = Water solubility limit by visual examination (transparent/turbid); type: physicochemical; details: water, water; for solubility: thermodynamic from solid, read-out: Solubility Limit (S/mM)
Text: Water solubility reflects the ability of a particular molecule to dissolve and its interaction with water. To characterize the water solubility of most amphiphile molecules, especially the ionic surfactants, the Krafft point (Tk) is often used, referring to the critical temperature above which micelles form or the melting point of the hydrated solid surfactant. Two general approaches were used to measure the Tks of the molecules investigated herein: (1) a visual examination of the dissolution phenomenon for binary molecule/water systems, and (2) a quantitative measurement by using differential scanning calorimetry (DSC) analysis. The visual observation procedure is detailed below. […] Consequently, molecules can be classified into two major types: those soluble in water at RT and others insoluble at RT, with the solubility limit being called S (expressed in mM). The aspect of the sample, either transparent or turbid, is determined by direct visual examination. Tk determination with DSC is particularly applicable in the case of molecules insoluble at RT, for which a concentrated binary molecule/water mixture with a mass fraction of 20% of each molecule (C >> CMC in most cases) was prepared at 65 °C under stirring for 30 min to obtain a homogeneous system. These pre-homogenized aqueous systems were cooled and conserved in a refrigerator at 4 °C for a suitable period (>7 days), during which equilibrated hydrated crystals formed and precipitated. Then, for each molecule, about a 200–400 mg crystal sample was taken and put into the calorimeter cell. The first equilibrium phase was programmed at 4 °C for 1 h, followed by a slow heating stage from 4 °C to 65 °C at a rate of 0.5 °C/min. Tk was determined based on the location of the endothermic peak on the DSC curve, if any. All agitations were performed using a standard magnetic hotplate stirrer, MR 3001K (Heidolph Instruments, Schwabach, Germany). DSC curves were obtained from a commercial µDSC7 evo calorimeter (SETARAM Instrumentation, Caluire-et-Cuire, France). Tks are reported as the averages of at least two measurements as well as their standard deviations.

[2] = Equilibrium surface tension, Wilhelmy plate method (CMC, γcmc, Amin and derived quantities); type: physicochemical; details: for Amin: from Gibbs adsorption equation
Procedure: CMCs are determined from the inflections in the plots of equilibrium surface tension against the logarithm of the concentration. For the interested reader, the Gibbs-free energy of micellization, ΔGmic, the Gibbs-free energy of adsorption, ΔGads, and the efficiency of surfactant adsorption pC20 were calculated based on their definitions, as presented in Table 2.
The surface activity reflects the amphiphiles’ adsorption behavior on the air–aqueous solution interface. The surface tension (γ) was obtained using the Wilhelmy plate method with a K100 Processor Tensiometer (KRUSS, Hamburg, Germany). Both the critical micellar concentration (CMC) and equilibrium surface tension at the CMC (γcmc) were derived from the typical plot of surface tension (γ) against the logarithm of concentration (Log C). The surface excess (Γmax) and minimal area per molecule at the air–aqueous solution interface (Amin) at different temperatures were calculated from the Gibbs adsorption equation [3, 46]:(2) Γmax=−1/2.303RT(dγ/dlogc) and (3) Amin=10^20/NAΓmax where R is the ideal gas constant, 8.31 J∙mol^−1∙K^−1; T is the measuring temperature, K; γ is the surface tension, N/m; c is the concentration, mol.L^−1; Amin is the minimal area per molecule, Å^2, and NA is Avogadro’s number, 6.022·10^23 mol^−1.
For each molecule, several solutions of a wide range of concentrations were prepared. Before measuring, each solution was finely homogenized with the help of a magnetic stirring bar. The stirring time was fixed at 30 min in all cases. […] Then, measurements were performed once for each concentration, at the solution preparation’s temperature, with an uncertainty of ±1 °C.

[3] = Krafft temperature (Tk) by visual examination and DSC of molecule/water systems; type: physicochemical; details: in water; observation and DSC; average ± SD of at least two measurements
Text: Water solubility reflects the ability of a particular molecule to dissolve and its interaction with water. To characterize the water solubility of most amphiphile molecules, especially the ionic surfactants, the Krafft point (Tk) is often used, referring to the critical temperature above which micelles form or the melting point of the hydrated solid surfactant. Two general approaches were used to measure the Tks of the molecules investigated herein: (1) a visual examination of the dissolution phenomenon for binary molecule/water systems, and (2) a quantitative measurement by using differential scanning calorimetry (DSC) analysis. The visual observation procedure is detailed below. We start with adding the molecule into 5–50 mL water, in a concentration range between 10^−2 mM and 10^3 mM (corresponding to a range of a surfactant mass concentration well below 20%), keeping the suspension under stirring for a certain time at room temperature (RT). Consequently, molecules can be classified into two major types: those soluble in water at RT and others insoluble at RT, with the solubility limit being called S (expressed in mM). The aspect of the sample, either transparent or turbid, is determined by direct visual examination. Tk determination with DSC is particularly applicable in the case of molecules insoluble at RT, for which a concentrated binary molecule/water mixture with a mass fraction of 20% of each molecule (C >> CMC in most cases) was prepared at 65 °C under stirring for 30 min to obtain a homogeneous system. These pre-homogenized aqueous systems were cooled and conserved in a refrigerator at 4 °C for a suitable period (>7 days), during which equilibrated hydrated crystals formed and precipitated. Then, for each molecule, about a 200–400 mg crystal sample was taken and put into the calorimeter cell. The first equilibrium phase was programmed at 4 °C for 1 h, followed by a slow heating stage from 4 °C to 65 °C at a rate of 0.5 °C/min. Tk was determined based on the location of the endothermic peak on the DSC curve, if any. All agitations were performed using a standard magnetic hotplate stirrer, MR 3001K (Heidolph Instruments, Schwabach, Germany). DSC curves were obtained from a commercial µDSC7 evo calorimeter (SETARAM Instrumentation, Caluire-et-Cuire, France). Tks are reported as the averages of at least two measurements as well as their standard deviations.

[4] = cited from earlier work
[5] = above its Tk; cited from earlier work
[6] = at 25 °C, mixture of α and β anomers

Structure (SMILES)	solubility ([1]; at RT) [mM]	C20 ([2]; T = 25 °C) [mM]	pC20 ([2]; T = 25 °C)	ΔGads ([2]; T = 25 °C) [kcal/mol]	ΔGmic ([2]; T = 25 °C) [kcal/mol]	CMC ([2]; T = 25 °C (T > Tk))	γcmc ([2]; T = 25 °C (T > Tk)) [mN/m]	Amin ([2]; T = 25 °C) [Å^2/molecule]	Tk (Krafft temperature) [3] [°C]	also measured
CCCCCCCCOC(=O)[C@H]1O[C@H](OC)[C@H](O)[C@@H](O)[C@@H]1O [MeαGlc(C=O)OC8, methyl octyl α-D-glucuronate]	15 to 20 (≈ 4810 to 6410 µg/mL)	0.5	3.3	-7.3	-4.8	6 mM and 6 ± 0.5 mM	29.2 ± 0.35	41 ± 1	<4	
CCCCCCCC(=O)OC1O[C@H](CO)[C@@H](O)[C@H](O)[C@H]1O (stereo partly drawn) [D-glucosyl octanoate]										CMC [4, 6]: 19.1 mM
CCCCCCCCCC(=O)OC[C@H]1O[C@H](OC)[C@H](O)[C@@H](O)[C@@H]1O [MeαGlcO(C=O)C9, Methyl 6-O-decanoyl-α-D-glucopyranoside]									26.5 ± 0.2	Solubility Limit (S/mM) ([1]; at RT): insoluble; solubility ([1]; at T > Tk): ≤ 1 mM; C20 ([2]; T = 30 °C): 0.08 mM; pC20 ([2]; T = 30 °C): 4.1; ΔGads ([2]; T = 30 °C): -8.4 kcal/mol; ΔGmic ([2]; T = 30 °C): -5.8 kcal/mol; CMC ([2]; T = 30 °C (T > Tk)): 0.92 ± 0.08 mM; γcmc ([2]; T = 30 °C (T > Tk)): 27.9 ± 0.05 mN/m; Amin ([2]; T = 30 °C): 41.8 ± 0.9 Å^2/molecule
CCCCCCCC(=O)OC[C@H]1O[C@H](OC)[C@H](O)[C@@H](O)[C@@H]1O [MeαGlcO(C=O)C7, Methyl 6-O-octanoyl-α-D-glucopyranoside]	≤ 10	1.0	3.0	-6.9	-4.5	9.8 mM and 9.8 ± 0.76 mM	29.5 ± 0.5	39 ± 2	<4	solubility ([1]; at T > Tk): < 10 mM
CCCCCCCCCCCC(=O)OC[C@H]1O[C@H](OC)[C@H](O)[C@@H](O)[C@@H]1O [MeαGlcO(C=O)C11, Methyl 6-O-dodecanoyl-α-D-glucopyranoside]									42.9 ± 0.1	Solubility Limit (S/mM) ([1]; at RT): insoluble; solubility ([1]; at T > Tk): ≤ 0.1 mM; C20 ([2]; T = 50 °C): 0.007 mM; pC20 ([2]; T = 50 °C): 5.1; ΔGads ([2]; T = 50 °C): -10.4 kcal/mol; ΔGmic ([2]; T = 50 °C): -7.7 kcal/mol; CMC ([2]; T = 50 °C (T > Tk)): 0.08 ± 0.005 mM; γcmc ([2]; T = 50 °C (T > Tk)): 26.7 ± 0.25 mN/m; Amin ([2]; T = 50 °C): 45.8 ± 2.8 Å^2/molecule
CCCCCCCCCCOC(=O)[C@H]1O[C@H](OC)[C@H](O)[C@@H](O)[C@@H]1O [MeαGlc(C=O)OC10]	0.5 to 0.75 (≈ 174 to 261 µg/mL)	0.05	4.3	-8.6	-5.9	0.65 ± 0.5 mM	28.1 ± 0.1	42.4 ± 2	<4	
CCCCCCOC(=O)[C@H]1O[C@H](OC)[C@H](O)[C@@H](O)[C@@H]1O [MeαGlc(C=O)OC6]	≤ 50	5.9	2.2	-5.9	-3.6	55 ± 5 mM	30.8 ± 0.8	39.2 ± 2.9	<4	
CCCCCCCC(=O)OC[C@H]1O[C@@H](O)[C@H](O)[C@@H](O)[C@@H]1O [6-O-octanoyl-β-glucose]										solubility limit [5]: 25 mg/mL and > 80 mM; CMC ([4]; ref 20): 18 mM
CCCCCCCCOC(=O)[C@@H](O)[C@@H](O)[C@H](O)[C@@H](O)C=O [octyl D-glucuronate]										CMC [4, 6]: 10.7 mM; CMC ([4]; ref 17): 10.68 mM
CCCCCCCCCCCCOC(=O)[C@H]1O[C@H](OC)[C@H](O)[C@@H](O)[C@@H]1O [MeαGlc(C=O)OC12]	0.02 to 0.05 (≈ 7.53 to 18.8 µg/mL)	0.004	5.4	-10.1	-7.2	0.056 ± 0.004 mM	28.3 ± 0.3	45.6 ± 5	22.1 ± 0.2	
CCCCCC(=O)OC[C@H]1O[C@H](OC)[C@H](O)[C@@H](O)[C@@H]1O [MeαGlcO(C=O)C5, Methyl 6-O-hexanoyl-α-D-glucopyranoside]	< 40	11.2	2.0	-5.6	-3.3	105 ± 5 mM	31 ± 0.1	40.1 ± 0.3	<4	
CCCCCCCC(=O)O[C@H]1[C@H](O)[C@@H](CO)OC(O)[C@@H]1O (stereo partly drawn) [3-O-octanoyl-D-glucopyranose]										CMC ([4]; mixture of α and β anomers): 0.61 mM; CMC ([4]; ref 21): 1.6 mM
CCCCCCCCOC(=O)[C@H]1O[C@@H](OC)[C@H](O)[C@@H](O)[C@H]1O [MeβGal(C=O)OC8, methyl octyl galacturonate]									31.6 ± 0.9	Solubility Limit (S/mM) ([1]; at RT): insoluble; Solubility Limit (S/mM) ([1]; at T > Tk): high solubility limits; solubility ([1]; at T > Tk): > 100 mM; C20 ([2]; T = 40 °C): 1.2 mM; pC20 ([2]; T = 40 °C): 2.9; ΔGads ([2]; T = 40 °C): -7.4 kcal/mol; ΔGmic ([2]; T = 40 °C): -5.0 kcal/mol; CMC ([2]; T = 40 °C (T > Tk)): 6.9 ± 0.4 mM; γcmc ([2]; T = 40 °C (T > Tk)): 29.4 ± 0.36 mN/m; Amin ([2]; T = 40 °C): 42.9 ± 3.9 Å^2/molecule
CCCCCCCC(=O)OC[C@H]1O[C@@H](OC)[C@H](O)[C@@H](O)[C@H]1O [MeβGalO(C=O)C7, Methyl 6-O-octanoyl-β-D-galactopyranoside]	> 100	0.7	3.1	-7.3	-4.6	8.5 ± 0.5 mM	28.3 ± 0.35	42.7 ± 2.4	<4	Solubility Limit (S/mM) ([1]; at T > Tk): high solubility limits
